Experimental findings from ChEMBL document CHEMBL1131952, “Synthesis of tetrasubstituted bicyclo[3.2.1]octenes as potential inhibitors of influenza virus sialidase” (Bioorg Med Chem Lett, 1999) are described below.

Assay [1] deals with Influenza A virus. Kind of assay: Inhibitory activity against sialidase of influenza A. The class given is functional, organism-based.
The subject of assay [2] is Influenza B virus. Kind of assay: Inhibitory activity against sialidase of influenza B. The class given is functional, organism-based.

pIC50: −log10 of the molar value.

The term pIC50 denotes the negative decadic logarithm of the IC50, by convention in mol/L. A high value points to a small IC50. For the compound `CCC(CC)O[C@@H]1C=C(C(=O)O)[C@@H]2CC[C@@]1(NC(C)=O)[C@H]2O`, the results for the negative-log IC50 (pIC50) in assay [1] and in assay [2] were 4.10 and 3.47, respectively.

On to `CC(=O)N[C@H]1[C@H]([C@H](O)[C@H](O)CO)OC(C(=O)O)=C[C@@H]1O` [NEU5AC2EN], for which the pIC50 in assay [1] was 5.55; in assay [2], 5.52.

In the case of `CCC(CC)O[C@@H]1C=C(C(=O)O)[C@@H]2CC[C@@]1(C(=O)OC)[C@H]2O`, the pIC50 in assay [1] was 4.00; in assay [2], 4.08.

As to `CCC(CC)O[C@@H]1C=C(C(=O)O)[C@@H]2CC[C@@]1(C(=O)O)[C@H]2O`, the pIC50 in assay [1] and in assay [2] was less than 3.17 throughout.
